Target: KFDV NS5 (Kyasanur Forest disease virus, UniProt D7RF80)
Experiment: biochemical

Sequence of KFDV NS5 (D7RF80 2518-3410 limits assumed): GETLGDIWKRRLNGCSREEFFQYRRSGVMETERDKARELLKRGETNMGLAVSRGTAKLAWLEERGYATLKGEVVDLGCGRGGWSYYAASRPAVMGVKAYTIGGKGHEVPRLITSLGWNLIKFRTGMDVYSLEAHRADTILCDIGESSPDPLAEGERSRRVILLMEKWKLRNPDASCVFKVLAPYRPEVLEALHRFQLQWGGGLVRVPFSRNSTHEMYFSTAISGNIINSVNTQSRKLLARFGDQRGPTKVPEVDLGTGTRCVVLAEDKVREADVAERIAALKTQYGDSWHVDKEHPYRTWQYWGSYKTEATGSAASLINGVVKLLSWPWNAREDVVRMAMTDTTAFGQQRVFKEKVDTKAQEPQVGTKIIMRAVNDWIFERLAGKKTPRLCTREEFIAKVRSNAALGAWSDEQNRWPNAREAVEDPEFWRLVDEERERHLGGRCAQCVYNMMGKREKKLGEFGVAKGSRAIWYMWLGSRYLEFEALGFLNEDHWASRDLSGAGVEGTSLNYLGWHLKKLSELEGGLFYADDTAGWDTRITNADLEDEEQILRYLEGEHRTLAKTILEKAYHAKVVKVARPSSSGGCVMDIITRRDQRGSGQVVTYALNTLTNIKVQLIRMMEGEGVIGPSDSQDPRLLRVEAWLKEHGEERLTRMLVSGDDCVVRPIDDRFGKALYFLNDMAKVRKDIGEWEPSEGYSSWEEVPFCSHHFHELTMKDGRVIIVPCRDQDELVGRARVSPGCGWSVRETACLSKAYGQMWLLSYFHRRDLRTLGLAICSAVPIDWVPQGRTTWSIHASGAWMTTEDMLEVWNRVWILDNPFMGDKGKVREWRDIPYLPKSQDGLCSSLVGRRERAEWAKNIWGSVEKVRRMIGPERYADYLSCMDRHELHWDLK

Structure (SMILES)	IC50 [µM]
CC(C)OC(=O)[C@H](C)N[P@](=O)(OC[C@H]1O[C@@H](n2ccc(=O)[nH]c2=O)[C@](C)(F)[C@@H]1O)Oc1ccccc1 [Sofosbuvir, L-Alanine, N-[[P(S),2’R]-2’-deoxy-2’-fluoro-2’-methyl-P-phenyl-5’-uridylyl]-,1-methyl ethyl ester]	3.45 ± 0.012
C[C@@]1(F)[C@H](O)[C@@H](COP(=O)(O)OP(=O)(O)OP(=O)(O)O)O[C@H]1n1ccc(=O)[nH]c1=O [sofosbuvir triphosphate, β-D-2’-deoxy-2’-fluoro-2’-C-methyluridine 5’-triphosphate]	3.73 ± 0.033
